Measurements taken from patent US9187484B2 (Southern Research Institute, priority 2012, dated 2015).

The molecules below were run against T1, LRRK2 (G2019S) (Homo sapiens, UniProt Q5S007, G2019S) (assay: LRRK2 inhibition, radiometric kinase assay with recombinant GST-LRRK2 (delta970) and peptide substrate). Conditions: GST-LRRK2 (delta970) G2019S 30 nM, ATP ~52 μM (Km), 30 min at 30° C.
T1 construct: Recombinant GST-LRRK2 (delta970), purified from baculovirus infected insect cells (SF9); GST (N); host or cells: baculovirus infected insect cells (SF9)
T1 sequence (Q5S007 970-2527 G2019S limits assumed): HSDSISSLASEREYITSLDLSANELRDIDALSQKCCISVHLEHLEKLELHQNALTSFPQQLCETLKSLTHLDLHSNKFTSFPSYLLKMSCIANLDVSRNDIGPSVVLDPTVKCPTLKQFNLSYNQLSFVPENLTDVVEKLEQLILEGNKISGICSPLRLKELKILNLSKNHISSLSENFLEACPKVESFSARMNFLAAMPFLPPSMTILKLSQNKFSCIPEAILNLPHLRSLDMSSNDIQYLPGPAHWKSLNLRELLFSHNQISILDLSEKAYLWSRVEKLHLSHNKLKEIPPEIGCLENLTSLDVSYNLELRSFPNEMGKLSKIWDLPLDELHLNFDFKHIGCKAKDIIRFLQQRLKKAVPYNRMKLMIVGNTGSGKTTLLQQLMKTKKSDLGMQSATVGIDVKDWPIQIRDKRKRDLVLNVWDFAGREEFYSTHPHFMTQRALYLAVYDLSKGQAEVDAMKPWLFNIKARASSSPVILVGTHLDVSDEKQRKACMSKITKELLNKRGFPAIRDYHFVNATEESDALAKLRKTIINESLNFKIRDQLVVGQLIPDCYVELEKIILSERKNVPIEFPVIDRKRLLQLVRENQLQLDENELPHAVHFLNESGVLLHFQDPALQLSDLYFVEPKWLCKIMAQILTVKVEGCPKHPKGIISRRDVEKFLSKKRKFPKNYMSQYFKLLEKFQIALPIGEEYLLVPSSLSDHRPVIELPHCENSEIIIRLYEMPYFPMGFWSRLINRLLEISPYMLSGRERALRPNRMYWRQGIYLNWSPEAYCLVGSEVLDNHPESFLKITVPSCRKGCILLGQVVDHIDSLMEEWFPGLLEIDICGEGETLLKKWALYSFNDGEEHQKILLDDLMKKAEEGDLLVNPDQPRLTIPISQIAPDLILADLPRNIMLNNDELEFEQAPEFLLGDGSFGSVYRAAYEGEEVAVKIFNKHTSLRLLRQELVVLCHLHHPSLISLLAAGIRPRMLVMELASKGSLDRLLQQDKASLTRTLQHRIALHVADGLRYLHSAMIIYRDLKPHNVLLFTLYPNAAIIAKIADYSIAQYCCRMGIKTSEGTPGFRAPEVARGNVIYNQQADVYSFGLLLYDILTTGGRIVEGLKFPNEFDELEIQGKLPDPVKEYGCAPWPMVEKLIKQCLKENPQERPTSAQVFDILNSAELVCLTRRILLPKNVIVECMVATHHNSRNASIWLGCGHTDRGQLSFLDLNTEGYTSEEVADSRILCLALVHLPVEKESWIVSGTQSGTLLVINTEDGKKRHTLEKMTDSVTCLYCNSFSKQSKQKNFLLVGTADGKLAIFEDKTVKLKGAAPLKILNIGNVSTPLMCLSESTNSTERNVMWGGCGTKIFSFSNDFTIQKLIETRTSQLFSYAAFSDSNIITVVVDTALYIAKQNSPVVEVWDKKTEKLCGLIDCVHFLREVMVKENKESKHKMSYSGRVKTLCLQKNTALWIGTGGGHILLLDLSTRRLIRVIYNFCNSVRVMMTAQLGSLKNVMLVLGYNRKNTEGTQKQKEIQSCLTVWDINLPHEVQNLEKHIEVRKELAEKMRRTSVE
Format: biochemical
Description: Compounds were assessed for inhibition of LRRK2 inhibition using the following procedure.
Recombinant GST-LRRK2 (delta970), purified from baculovirus infected insect cells (SF9), at least 90% pure and either wild-type sequence or bearing the pathogenic G2019S mutation, was combined into a kinase buffer at 30 nM concentration. Kinase buffer consists of 50 mM Tris HCl pH 7.4, 1 mM EDTA, and 50 μM peptide substrate (amino acid sequence […]). Experimental compounds or control (no compound) were added at desired concentrations in DMSO and water, where final concentration of DMSO in kinase reactions was 0.1% for all drug concentrations. Activation buffer that consists of a final concentration in the reactions of 10 mM MgCl2 and ATP (˜92 μM for WT-LRRK2 reactions and ˜52 μM for G2019S-LRRK2, which represent respective Km ATP concentrations) were added to each reaction, in addition to 0.5 μCi of gamma-32-P-dATP per reaction. Reactions were incubated at 1400 RPM at 30° C. for 30 min. and then spotted in triplicate directly onto a slot-blot apparatus fitted with phospho-cellulose paper and allowed to dry. Each slot was then washed with 10 mM phosphoric acid buffer until beta-radiation could not be detected in eluted wash buffer, usually ˜1 mL per slot. Paper within each slot were excised and radiation measured by liquid scintillation.

SMILES	IC50 [nM]
CCC(Oc1ccc2nnc(-c3cccs3)n2n1)C(N)=O (centres unmarked) [Example 84, 2-((3-(thiophen-2-yl)-[1,2,4]triazolo[4,3-b]pyridazin-6-yl)oxy)butanamide]	≥ 5000
CCC(Oc1ccc2nnc(-c3cccs3)n2n1)C(=O)N1CCCCC1 (centres unmarked) [Example 85, 1-(piperidin-1-yl)-2-((3-(thiophen-2-yl)-[1,2,4]triazolo[4,3-b]pyridazin-6-yl)oxy)butan-1-one]	≥ 5000
CCC(Sc1ccc2nnc(-c3cccs3)n2n1)C(=O)Nc1ccccc1 (centres unmarked) [Example 86, N-phenyl-2-((3-(thiophen-2-yl)-[1,2,4]triazolo[4,3-b]pyridazin-6-yl)thio)butanamide]	≥ 5000
CCc1ccc(-c2nnc3ccc(SC(CC)C(=O)N4CCCCC4)nn23)s1 (centres unmarked) [Example 87, 2-((3-(5-ethylthiophen-2-yl)-[1,2,4]triazolo[4,3-b]pyridazin-6-yl)thio)-1-(piperidin-1-yl)butan-1-one]	100 to 1000
CCc1ccc(-c2cnc3ccc(SC(CC)C(=O)O)nn23)s1 (centres unmarked) [Example 88, 2-((3-(5-ethylthiophen-2-yl)imidazo[1,2-b]pyridazin-6-yl)thio)butanoic acid]	1000 to 5000
CCC(Sc1ccc2nnc(-c3ccc(C)s3)n2n1)C(=O)O (centres unmarked) [Example 89, 2-((3-(5-methylthiophen-2-yl)-[1,2,4]triazolo[4,3-b]pyridazin-6-yl)thio)butanoic acid]	100 to 1000
NC(=O)CS(=O)(=O)c1ccc2nnc(-c3cccs3)n2n1 [Example 91, 2-((3-(thiophen-2-yl)-[1,2,4]triazolo[4,3-b]pyridazin-6-yl)sulfonyl)acetamide]	1000 to 5000
CCCC(Sc1ccc2nnc(-c3cccs3)n2n1)C(=O)O (centres unmarked) [Example 92, 2-((3-(thiophen-2-yl)-[1,2,4]triazolo[4,3-b]pyridazin-6-yl)thio)pentanoic acid]	100 to 1000
CCCC(Sc1ccc2nnc(-c3cccs3)n2n1)C(=O)N1CCCCC1 (centres unmarked) [Example 93, 1-(piperidin-1-yl)-2-((3-(thiophen-2-yl)-[1,2,4]triazolo[4,3-b]pyridazin-6-yl)thio)pentan-1-one]	100 to 1000
CCC(Sc1ccc2nnc(-c3ccccc3F)n2n1)C(=O)N1CCCCC1 (centres unmarked) [Example 94, 2-((3-(2-fluorophenyl)-[1,2,4]triazolo[4,3-b]pyridazin-6-yl)thio)-1-(piperidin-1-yl)butan-1-one]	100 to 1000
CCC(Sc1ccc2nnc(-c3ccc(C(F)(F)F)cc3)n2n1)C(=O)N1CCCCC1 (centres unmarked) [Example 95, 1-(piperidin-1-yl)-2-((3-(4-(trifluoromethyl)phenyl)-[1,2,4]triazolo[4,3-b]pyridazin-6-yl)thio)butan-1-one]	1000 to 5000
CCC(Sc1ccc2nnc(-c3ccc(F)c(F)c3)n2n1)C(=O)N1CCCCC1 (centres unmarked) [Example 96, 2-((3-(3,4-difluorophenyl)-[1,2,4]triazolo[4,3-b]pyridazin-6-yl)thio)-1-(piperidin-1-yl)butan-1-one]	100 to 1000
CCC(Sc1ccc2nnc(-c3cccc(F)c3)n2n1)C(=O)N1CCCCC1 (centres unmarked) [Example 97, 2-((3-(3-fluorophenyl)-[1,2,4]triazolo[4,3-b]pyridazin-6-yl)thio)-1-(piperidin-1-yl)butan-1-one]	100 to 1000
CCC(Nc1ccc2nnc(-c3cccs3)n2n1)C(=O)OC (centres unmarked) [Example 98, methyl 2-((3-(thiophen-2-yl)-[1,2,4]triazolo[4,3-b]pyridazin-6-yl)amino)butanoate]	≥ 5000
CCC(Nc1ccc2nnc(-c3cccs3)n2n1)C(N)=O (centres unmarked) [Example 99, 2-((3-(thiophen-2-yl)-[1,2,4]triazolo[4,3-b]pyridazin-6-yl)amino)butanamide]	≥ 5000
CCC(Nc1ccc2nnc(-c3cccs3)n2n1)C(=O)N1CCCCC1 (centres unmarked) [Example 100, 1-(piperidin-1-yl)-2-((3-(thiophen-2-yl)-[1,2,4]triazolo[4,3-b]pyridazin-6-yl)amino)butan-1-one]	≥ 5000
CC(Sc1ccc2nnc(-c3cccs3)n2n1)C(=O)N1CCC1 (centres unmarked) [Example 101, 1-(azetidin-1-yl)-2-((3-(thiophen-2-yl)-[1,2,4]triazolo[4,3-b]pyridazin-6-yl)thio)propan-1-one]	< 100
CCOC(=O)C1CCCN(C(=O)C(CC)Sc2ccc3nnc(-c4cccs4)n3n2)C1 (centres unmarked) [Example 103, ethyl 1-(2-((3-(thiophen-2-yl)-[1,2,4]triazolo[4,3-b]pyridazin-6-yl)thio)butanoyl)piperidine-3-carboxylate]	1000 to 5000
CCC(Sc1ccc2nnc(-c3cccs3)n2n1)C(=O)N1CCCCC1C (centres unmarked) [Example 104, 1-(2-methylpiperidin-1-yl)-2-((3-(thiophen-2-yl)-[1,2,4]triazolo[4,3-b]pyridazin-6-yl)thio)butan-1-one]	100 to 1000
CC(Sc1ccc2nnc(-c3cccs3)n2n1)C(=O)N1CCCC1 (centres unmarked) [Example 105, 1-(pyrrolidin-1-yl)-2-((3-(thiophen-2-yl)-[1,2,4]triazolo[4,3-b]pyridazin-6-yl)thio)propan-1-one]	< 100
CCC(Sc1ccc2nnc(-c3ccccc3)n2n1)C(=O)N1CCCCC1 (centres unmarked) [Example 106, 2-((3-phenyl-[1,2,4]triazolo[4,3-b]pyridazin-6-yl)thio)-1-(piperidin-1-yl)butan-1-one]	100 to 1000
CC(C)(Sc1ccc2nnc(-c3cccs3)n2n1)C(=O)N1CCCC1 [Example 107, 2-methyl-1-(pyrrolidin-1-yl)-2-((3-(thiophen-2-yl)-[1,2,4]triazolo[4,3-b]pyridazin-6-yl)thio)propan-1-one]	1000 to 5000
CC(Sc1ccc2nnc(-c3cnccn3)n2n1)C(=O)N1CCCCC1 (centres unmarked) [Example 108, 1-(piperidin-1-yl)-2-((3-(pyrazin-2-yl)-[1,2,4]triazolo[4,3-b]pyridazin-6-yl)thio)propan-1-one]	100 to 1000
CC(Sc1ccc2nnc(-c3ncccn3)n2n1)C(=O)N1CCCCC1 (centres unmarked) [Example 109, 1-(piperidin-1-yl)-2-((3-(pyrimidin-2-yl)-[1,2,4]triazolo[4,3-b]pyridazin-6-yl)thio)propan-1-one]	100 to 1000
CC(Sc1ccc2nnc(-c3cscn3)n2n1)C(=O)N1CCCCC1 (centres unmarked) [Example 110, 1-(piperidin-1-yl)-2-((3-(thiazol-4-yl)-[1,2,4]triazolo[4,3-b]pyridazin-6-yl)thio)propan-1-one]	100 to 1000
CC(Sc1ccc2nnc(-c3cscn3)n2n1)C(=O)N1CCCC1 (centres unmarked) [Example 111, 1-(pyrrolidin-1-yl)-2-((3-(thiazol-4-yl)-[1,2,4]triazolo[4,3-b]pyridazin-6-yl)thio)propan-1-one]	100 to 1000
CC(Sc1ccc2nnc(-c3ccnn3C)n2n1)C(=O)N1CCCCC1 (centres unmarked) [Example 112, 2-((3-(1-methyl-1H-pyrazol-5-yl)-[1,2,4]triazolo[4,3-b]pyridazin-6-yl)thio)-1-(piperidin-1-yl)propan-1-one]	≥ 5000
CC(Sc1ccc2nnc(-c3ccn(C)n3)n2n1)C(=O)N1CCCCC1 (centres unmarked) [Example 113, 2-((3-(1-methyl-1H-pyrazol-3-yl)-[1,2,4]triazolo[4,3-b]pyridazin-6-yl)thio)-1-(piperidin-1-yl)propan-1-one]	100 to 1000
CCC(Sc1ccc2nnc(-c3cccs3)n2n1)C(=O)N1CCC1 (centres unmarked) [Example 114, 1-(azetidin-1-yl)-2-((3-(thiophen-2-yl)-[1,2,4]triazolo[4,3-b]pyridazin-6-yl)thio)butan-1-one]	100 to 1000
